The values below come from patent publication US20120141977A1, “HEPATITIS B VIRUS MUTATION STRAIN WITH RESISTANCE TO ADEFOVIR DIPIVOXIL AND THE USES THEREOF” (priority 2009, published 2012).

Experiment [1] deals with HBV rtE218G mutant strain. As to the kind of experiment: Drug sensitivity test: HepG2 cells transiently transfected with rtE218G mutagenic HBV plasmid, intracellular replication intermediates by Southern blotting. Format: cell-based, hepatitis B virus. The procedure: (§1) After recovery, Human hepatoma cell strain HepG2 grew as the adherent monolayer cells in the DMEM medium with 10% fetal bovine serum at 37° C. in 5% CO2. Every 3 to 5 days, cells were passaged one generation in a ratio of 1:3. 24 hours before transfection, cells were inoculated in an appropriate amount (about 2×10^5 per well in a 6-well plate). Preferably, cell density was 40 to 60% for transfection (also, 80 to 90% as well). 1 hour before transfection, the medium was replaced with fresh complete culture medium (2 ml per well), and incubated at 37° C. in 5% CO2. To each well, for example, saline for injection was added to 2 μg of DNA to make a total volume of 100 μl, followed by mixing gently and standing at room temperature. Saline for injection was added to 2 μl of VigoFect to make a total volume of 100 μl, followed by mixing gently and standing at room temperature for 5 minutes. The diluted VigoFect was added to the diluted DNA solution dropwise, mixed gently, followed by keeping the resultant working solution for transfection stand at room temperature for 15 minutes. The transfection working solution was mixed gently and 2 ml of medium was added thereto dropwise, mixed gently and then incubated at 37° C. in 5% CO2. 2 days after transfection, the medium was replaced and ADV were added thereto with the final concentrations of 0, 0.01, 0.1, 1, 5, 10 and 20 μM. […]

In experiment [2] the test system is rtL180M +M204V and rtN236T. The note with it: cited from earlier work.
The subject of another experiment is HBV wild strain. As to the kind of experiment: Drug sensitivity test: HepG2 cells transiently transfected with wild-type HBV plasmid, intracellular replication intermediates by Southern blotting. It counts as cell-based. The note with it: Hepatitis B virus, 168 h, HBV replication intermediates in cytoplasm, Southern blotting gray values, treated 7 days, read-out: half maximal inhibitory concentration (IC50) for the wild strain. The procedure:
as §1

Regarding `Nc1ncnc2c1ncn2CCOCP(=O)(O)O` [adefovir], the IC50 in experiment [1] (Hepatitis B virus, 168 h, HepG2 cells, HBV replication intermediates in cytoplasm, Southern blotting gray values, treated 7 days, read-out: half maximal inhibitory concentration (IC50) for the rtE218G mutant strain) turned out to be 9.3 µM; with HBV wild strain, 1.7 µM. Also, the “IC50 of rtE218G mutant strain relative to that of the wild strain” value in experiment [1] (ratio mutant IC50 / wild IC50) was 5.5 times. In addition, the “decrease of sensitivity of combined three mutations compared with rtN236T single mutation” value in experiment [2] is 2 folds.
